Patent publication US12226409B2, “Treatment of hepatocellular carcinoma” (Eisai R&D Management Co., Ltd., priority 2017, dated 2025)

System: patients with unresectable HCC
Assay: Open-label phase 3 study, safety and side-effect profile (CTCAE v4.0)
[1] = Any grade, listed as lenvatinib

From the text: Randomization was stratified according to region (Asia-Pacific or Western regions), macroscopic portal vein invasion and/or extrahepatic spread (yes or no), Eastern Cooperative Oncology Group performance status (0 or 1), and body weight (<60 kg or ≥60 kg).
Safety assessments included recording of vital signs, hematologic and biochemical laboratory testing, urinalysis, and electrocardiography.

## COc1cc2nccc(Oc3ccc(NC(=O)NC4CC4)c(Cl)c3)c2cc1C(N)=O [Lenvatinib, 4-(3-chloro-4(cyclopropylaminocarbonyl)aminophenoxy)-7-methoxy-6-quinolinecarboxamide]
12 mg starting dose
  TEAE: Alopecia: 9 (2.8) n (%)
  TEAE: Ascites: 47 (14.5) n (%)
  TEAE: Aspartate aminotransferase increased: 44 (13.5) n (%)
  TEAE: Asthenia: 40 (12.3) n (%)
  TEAE: Back pain: 39 (12.0) n (%)
  TEAE: Blood bilirubin increased: 48 (14.8) n (%)
  TEAE: Constipation: 57 (17.5) n (%)
  TEAE: Decreased appetite: 112 (34.5) n (%)
  TEAE: Diarrhea: 131 (40.3) n (%)
  TEAE: Dysphonia: 85 (26.2) n (%)
  TEAE: Edema peripheral: 43 (13.2) n (%)
  TEAE: Fatigue: 99 (30.5) n (%)
  TEAE: Hypertension: 136 (41.8) n (%)
  TEAE: Hypothyroidism: 53 (16.3) n (%)
  TEAE: Nausea: 69 (21.2) n (%)
  TEAE: Palmar-plantar erythrodysesthesia syndrome: 93 (28.6) n (%)
  TEAE: Platelet count decreased: 61 (18.8) n (%)
  TEAE: Proteinuria: 80 (24.6) n (%)
  TEAE: Pyrexia: 45 (13.8) n (%)
  TEAE: Rash: 28 (8.6) n (%)
  TEAE: Stomatitis: 34 (10.5) n (%)
  TEAE: Vomiting: 55 (16.9) n (%)
  TEAE: Weight decreased: 104 (32.0) n (%)
Any grade
  TEAE: Dysphonia: (23.7) %
  TEAE: Proteinuria: (24.6) %
  TEAE: decreased weight: (30.9) %
[1]
  TEAE: Dysphonia: 23.7%
  TEAE: Hypertension: 42.2%
  TEAE: Hypothyroidism: 16.4%
  TEAE: Proteinuria: 24.6%
Full Analysis Set
  Primary reason for discontinuation of treatment: Adverse event: 63 (13.2) n (%)
HCC subjects
  most common adverse reactions, in order of decreasing frequency: hypertension, fatigue, diarrhea, decreased appetite, arthralgia/myalgia, and decreased weight
TEAEs of grade 3 or higher
  adverse event rate adjusted by patient-years: 3.2
All TEAEs
  adverse event rate adjusted by patient-years: 18.9
In vivo
  Dose modification: AST increased: 1.9%
  Dose modification: ascites: 2.1%
  Dose modification: hepatic encephalopathy: 4.2%
  Dose modification: neutrophil count decreased: 2.3%
  Dose modification: pyrexia: 2.5%
  Dose modification: vomiting: 2.5%
  Dose modification: weight decreased: 4.2%
  Dose reduction/interruption: Gastrointestinal disorders: 18.3%
  Dose reduction/interruption: General disorders and administration site conditions: 14.1%
  Dose reduction/interruption: Investigations: 17.0%
  Dose reduction/interruption: Metabolism and nutrition disorders: 10.9%
  Dose reduction/interruption: PPE syndrome: 5.3%
  Dose reduction/interruption: decreased appetite: 7.6%
  Dose reduction/interruption: diarrhea: 7.6%
  Dose reduction/interruption: fatigue: 5.7%
  Dose reduction/interruption: hypertension: 6.1%
  Dose reduction/interruption: proteinuria: 6.9%
  Treatment-emergent adverse events of grade 3 or higher, patients: 75.0%
  Treatment-emergent adverse events, patients: 98.7%
  WBC count deceased, adjusted by treatment duration: 0.25 episodes per SY
  dysphonia, adjusted by treatment duration: 0.4 episodes per SY
  hepatic encephalopathy, adjusted by treatment duration: 0.17 episodes per SY
  hypothyroidism, adjusted by treatment duration: 0.24 episodes per SY
  neutrophil count decreased, adjusted by treatment duration: 0.21 episodes per SY
  proteinuria, adjusted by treatment duration: 0.5 episodes per SY
  subjects without a TEAE: 6 subjects
Unadjusted for treatment duration
  AEs leading to dose reduction or interruption, subjects: 61.8%
Whole arm
  Dose reduction/interruption: Abdominal pain: 6 (1.3) n (%)
  Dose reduction/interruption: Abdominal pain upper: 5 (1.1) n (%)
  Dose reduction/interruption: Alanine aminotransferase increased: 6 (1.3) n (%)
  Dose reduction/interruption: Anemia: 3 (0.6) n (%)
  Dose reduction/interruption: Ascites: 10 (2.1) n (%)
  Dose reduction/interruption: Aspartate aminotransferase increased: 9 (1.9) n (%)
  Dose reduction/interruption: Asthenia: 16 (3.4) n (%)
  Dose reduction/interruption: Blood and lymphatic system disorders: 16 (3.4) n (%)
  Dose reduction/interruption: Blood bilirubin increased: 20 (4.2) n (%)
  Dose reduction/interruption: Decreased appetite: 36 (7.6) n (%)
  Dose reduction/interruption: Dehydration: 6 (1.3) n (%)
  Dose reduction/interruption: Diarrhea: 36 (7.6) n (%)
  Dose reduction/interruption: Dyspnea: 8 (1.7) n (%)
  Dose reduction/interruption: Edema peripheral: 6 (1.3) n (%)
  Dose reduction/interruption: Esophageal varices hemorrhage: 5 (1.1) n (%)
  Dose reduction/interruption: Fatigue: 27 (5.7) n (%)
  Dose reduction/interruption: Gamma-glutamyltransferase increased: 7 (1.5) n (%)
  Dose reduction/interruption: Gastrointestinal disorders: 87 (18.3) n (%)
  Dose reduction/interruption: General disorders and administration site conditions: 67 (14.1) n (%)
  Dose reduction/interruption: Hepatic encephalopathy: 20 (4.2) n (%)
  Dose reduction/interruption: Hepatic function abnormal: 2 (0.4) n (%)
  Dose reduction/interruption: Hepatobiliary disorders: 27 (5.7) n (%)
  Dose reduction/interruption: Hypertension: 29 (6.1) n (%)
  Dose reduction/interruption: Hyponatremia: 5 (1.1) n (%)
  Dose reduction/interruption: Investigations: 81 (17.0) n (%)
  Dose reduction/interruption: Malaise: 5 (1.1) n (%)
  Dose reduction/interruption: Metabolism and nutrition disorders: 52 (10.9) n (%)
  Dose reduction/interruption: Musculoskeletal and connective tissue disorders: 18 (3.8) n (%)
  Dose reduction/interruption: Myalgia: 5 (1.1) n (%)
  Dose reduction/interruption: Nausea: 16 (3.4) n (%)
  Dose reduction/interruption: Nervous system disorders: 35 (7.4) n (%)
  Dose reduction/interruption: Neutropenia: 6 (1.3) n (%)
  Dose reduction/interruption: Neutrophil count decreased: 11 (2.3) n (%)
  Dose reduction/interruption: Palmar-plantar erythrodysesthesia syndrome: 25 (5.3) n (%)
  Dose reduction/interruption: Platelet count decreased: 22 (4.6) n (%)
  Dose reduction/interruption: Proteinuria: 33 (6.9) n (%)
  Dose reduction/interruption: Pyrexia: 12 (2.5) n (%)
  Dose reduction/interruption: Rash: 2 (0.4) n (%)
  Dose reduction/interruption: Rash maculo-papular: 0 (0.0) n (%)
  Dose reduction/interruption: Renal and urinary disorders: 40 (8.4) n (%)
  Dose reduction/interruption: Respiratory, thoracic and mediastinal disorders: 16 (3.4) n (%)
  Dose reduction/interruption: Skin and subcutaneous tissue disorders: 28 (5.9) n (%)
  Dose reduction/interruption: Stomatitis: 6 (1.3) n (%)
  Dose reduction/interruption: Thrombocytopenia: 6 (1.3) n (%)
  Dose reduction/interruption: Vascular disorders: 33 (6.9) n (%)
  Dose reduction/interruption: Vomiting: 12 (2.5) n (%)
  Dose reduction/interruption: Weight decreased: 20 (4.2) n (%)
  Dose reduction/interruption: White blood cell count decreased: 6 (1.3) n (%)
  Subjects with Any TEAEs: 470 (98.7) n (%)
  Subjects with any TEAEs leading to Dose Reduction or Interruption: 294 (61.8) n (%)
  TEAE: Abdominal pain: 81 (17.0) n (%)
  TEAE: Abdominal pain upper: 58 (12.2) n (%)
  TEAE: Alanine aminotransferase increased: 53 (11.1) n (%)
  TEAE: Alopecia: 14 (2.9) n (%)
  TEAE: Ascites: 68 (14.3) n (%)
  TEAE: Aspartate aminotransferase increased: 65 (13.7) n (%)
  TEAE: Asthenia: 54 (11.3) n (%)
  TEAE: Back pain: 50 (10.5) n (%)
  TEAE: Blood bilirubin increased: 71 (14.9) n (%)
  TEAE: Constipation: 76 (16.0) n (%)
  TEAE: Decreased appetite: 162 (34.0) n (%)
  TEAE: Diarrhea: 184 (38.7) n (%)
  TEAE: Dysphonia: 113 (23.7) n (%)
  TEAE: Edema peripheral: 66 (13.9) n (%)
  TEAE: Fatigue: 141 (29.6) n (%)
  TEAE: Hypertension: 201 (42.2) n (%)
  TEAE: Hypothyroidism: 78 (16.4) n (%)
  TEAE: Nausea: 93 (19.5) n (%)
  TEAE: Palmar-plantar erythrodysesthesia syndrome: 128 (26.9) n (%)
  TEAE: Platelet count decreased: 87 (18.3) n (%)
  TEAE: Proteinuria: 117 (24.6) n (%)
  TEAE: Pyrexia: 69 (14.5) n (%)
  TEAE: Rash: 46 (9.7) n (%)
  TEAE: Stomatitis: 45 (9.5) n (%)
  TEAE: Vomiting: 77 (16.2) n (%)
  TEAE: Weight decreased: 147 (30.9) n (%)
